Laboratory results from ChEMBL document CHEMBL4145553, “Design, synthesis, and biological evaluation of novel amide and hydrazide based thioether analogs targeting Histone deacteylase (HDAC) enzymes” (Eur J Med Chem, 2018).
Active and inactive are the calls of the source. The rule behind the calls is not given here.

Tests used:
[1] = tested on: OVCAR-3; assay: Growth inhibition of human OVCAR3 cells assessed as cell growth at 10^-6 M incubated for 48 hrs by sulforhodamine B assay relative to control; format: functional; conditions: OVCAR-3, 48 h, read-out: Activity
[2] = tested on: RXF 393; assay: Growth inhibition of human RXF393 cells assessed as cell growth at 10^-6 M incubated for 48 hrs by sulforhodamine B assay relative to control; format: functional; conditions: RXF 393, 48 h, read-out: Activity
[3] = tested on: HL-60(TB); assay: Growth inhibition of human HL-60(TB) cells assessed as cell growth at 10^-4 M incubated for 48 hrs by sulforhodamine B assay relative to control; format: functional; conditions: HL-60, 48 h, read-out: Activity
[4] = tested on: Malme-3M; assay: Growth inhibition of human MALME-3M cells assessed as cell growth at 10^-4 M incubated for 48 hrs by sulforhodamine B assay relative to control; format: functional; conditions: read-out: Activity
[5] = tested on: HOP-62; assay: Growth inhibition of human HOP62 cells assessed as cell growth at 10^-8 M incubated for 48 hrs by sulforhodamine B assay relative to control; format: functional; conditions: HOP-62, 48 h, read-out: Activity
[6] = tested on: NCI-H460; assay: Growth inhibition of human NCI-H460 cells assessed as cell growth at 10^-5 M incubated for 48 hrs by sulforhodamine B assay relative to control; format: functional; conditions: NCI-H460, 48 h, read-out: Activity
[7] = tested on: COLO 205; assay: Growth inhibition of human COLO205 cells assessed as cell growth at 10^-4 M incubated for 48 hrs by sulforhodamine B assay relative to control; format: functional; conditions: COLO 205, 48 h, read-out: Activity
[8] = tested on: OVCAR-8; assay: Growth inhibition of human OVCAR8 cells assessed as cell growth at 10^-7 M incubated for 48 hrs by sulforhodamine B assay relative to control; format: functional; conditions: OVCAR-8, 48 h, read-out: Activity
[9] = tested on: NCI/ADR-RES; assay: Growth inhibition of human NCI/ADR-RES cells assessed as cell growth at 10^-7 M incubated for 48 hrs by sulforhodamine B assay relative to control; format: functional; conditions: read-out: Activity
[10] = tested on: HL-60; assay: Cell cycle arrest in human HL60 cells assessed as accumulation at G2-phase by propidium iodide staining based flow cytometry (reference value: 6.58%); format: functional
[11] = tested on: IGROV-1; assay: Growth inhibition of human IGROV1 cells assessed as cell growth at 10^-5 M incubated for 48 hrs by sulforhodamine B assay relative to control; format: functional; conditions: IGROV-1, 48 h, read-out: Activity
[12] = tested on: OVCAR-3; assay: Growth inhibition of human OVCAR3 cells assessed as cell growth at 10^-7 M incubated for 48 hrs by sulforhodamine B assay relative to control; format: functional; conditions: OVCAR-3, 48 h, read-out: Activity
[13] = tested on: BT-549; assay: Growth inhibition of human BT549 cells assessed as cell growth at 10^-8 M incubated for 48 hrs by sulforhodamine B assay relative to control; format: functional; conditions: BT-549, 48 h, read-out: Activity
[14] = tested on: HT-29; assay: Growth inhibition of human HT-29 cells assessed as cell growth at 10^-5 M incubated for 48 hrs by sulforhodamine B assay relative to control; format: functional; conditions: HT-29, 48 h, read-out: Activity
[15] = tested on: UACC-257; assay: Growth inhibition of human UACC257 cells assessed as cell growth at 10^-4 M incubated for 48 hrs by sulforhodamine B assay relative to control; format: functional; conditions: UACC-257, 48 h, read-out: Activity
[16] = tested on: MDA-MB-435; assay: Induction of apoptosis in human MDA-MB-435 cells assessed as increase in caspase-3 expression by qRT-PCR method; format: functional, cell-based
[17] = tested on: NCI-H226; assay: Growth inhibition of human NCI-H226 cells assessed as cell growth at 10^-4 M incubated for 48 hrs by sulforhodamine B assay relative to control; format: functional; conditions: NCI-H226, 48 h, read-out: Activity
[18] = tested on: 786-0; assay: Growth inhibition of human 786-0 cells assessed as cell growth at 10^-4 M incubated for 48 hrs by sulforhodamine B assay relative to control; format: functional; conditions: 786-0, 48 h, read-out: Activity
[19] = tested on: RXF 393; assay: Growth inhibition of human RXF393 cells assessed as cell growth at 10^-5 M incubated for 48 hrs by sulforhodamine B assay relative to control; format: functional; conditions: RXF 393, 48 h, read-out: Activity
[20] = tested on: SW-620; assay: Growth inhibition of human SW620 cells assessed as cell growth at 10^-7 M incubated for 48 hrs by sulforhodamine B assay relative to control; format: functional; conditions: SW-620, 48 h, read-out: Activity
[21] = tested on: RXF 393; assay: Growth inhibition of human RXF393 cells assessed as cell growth at 10^-4 M incubated for 48 hrs by sulforhodamine B assay relative to control; format: functional; conditions: RXF 393, 48 h, read-out: Activity
[22] = tested on: HL-60(TB); assay: Growth inhibition of human HL-60(TB) cells assessed as cell growth at 10^-5 M incubated for 48 hrs by sulforhodamine B assay relative to control; format: functional; conditions: HL-60, 48 h, read-out: Activity
[23] = tested on: SK-MEL-2; assay: Growth inhibition of human SK-MEL-2 cells assessed as cell growth at 10^-7 M incubated for 48 hrs by sulforhodamine B assay relative to control; format: functional; conditions: SK-MEL-2, 48 h, read-out: Activity
[24] = tested on: SK-OV-3; assay: Growth inhibition of human SKOV3 cells assessed as cell growth at 10^-5 M incubated for 48 hrs by sulforhodamine B assay relative to control; format: functional; conditions: SK-OV-3, 48 h, read-out: Activity
[25] = tested on: UACC-257; assay: Growth inhibition of human UACC257 cells assessed as cell growth at 10^-8 M incubated for 48 hrs by sulforhodamine B assay relative to control; format: functional; conditions: UACC-257, 48 h, read-out: Activity
[26] = tested on: HL-60(TB); assay: Growth inhibition of human HL-60(TB) cells assessed as cell growth at 10^-7 M incubated for 48 hrs by sulforhodamine B assay relative to control; format: functional; conditions: HL-60, 48 h, read-out: Activity
[27] = tested on: MDA-MB-435; assay: Induction of apoptosis in human MDA-MB-435 cells assessed as late apoptotic cells by propidium iodide/Annexin V staining based flow cytometry (reference value: 0.22%); format: functional
[28] = tested on: SR; assay: Growth inhibition of human SR cells assessed as cell growth at 10^-6 M incubated for 48 hrs by sulforhodamine B assay relative to control; format: functional; conditions: read-out: Activity
[29] = tested on: A498; assay: Growth inhibition of human A498 cells assessed as cell growth at 10^-5 M incubated for 48 hrs by sulforhodamine B assay relative to control; format: functional; conditions: A498, 48 h, read-out: Activity
[30] = tested on: SK-MEL-5; assay: Growth inhibition of human SK-MEL-5 cells assessed as cell growth at 10^-7 M incubated for 48 hrs by sulforhodamine B assay relative to control; format: functional; conditions: SK-MEL-5, 48 h, read-out: Activity
[31] = tested on: MDA-MB-435; assay: Induction of apoptosis in human MDA-MB-435 cells assessed as increase in gammaH2ax expression by qRT-PCR method; format: functional, cell-based
[32] = tested on: LOX IMVI; assay: Growth inhibition of human LOXIMVI cells assessed as cell growth at 10^-6 M incubated for 48 hrs by sulforhodamine B assay relative to control; format: functional; conditions: read-out: Activity
[33] = tested on: HL-60; assay: Induction of apoptosis in human HL60 cells assessed as increase in caspase-9 expression by qRT-PCR method; format: functional, cell-based
[34] = tested on: UACC-257; assay: Growth inhibition of human UACC257 cells assessed as cell growth at 10^-6 M incubated for 48 hrs by sulforhodamine B assay relative to control; format: functional; conditions: UACC-257, 48 h, read-out: Activity
[35] = tested on: MOLT-4; assay: Growth inhibition of human MOLT4 cells assessed as cell growth at 10^-7 M incubated for 48 hrs by sulforhodamine B assay relative to control; format: functional; conditions: MOLT-4, 48 h, read-out: Activity

Row | SMILES | growth at 1 µM [1] [%] | growth at 1 µM [2] [%] | growth at 100 µM [3] [%] | growth at 100 µM [4] [%] | growth at 0.01 µM [5] [%] | growth at 10 µM [6] [%] | growth at 100 µM [7] [%] | growth at 0.1 µM [8] [%] | growth at 0.1 µM [9] [%] | Activity [10] [%] | growth at 10 µM [11] [%] | growth at 0.1 µM [12] [%] | growth at 0.01 µM [13] [%] | growth at 10 µM [14] [%] | growth at 100 µM [15] [%] | Activity [16] | growth at 100 µM [17] [%] | growth at 100 µM [18] [%] | growth at 10 µM [19] [%] | growth at 0.1 µM [20] [%] | further results
1 | CCS/C(Nc1ccccc1)=C(\C#N)C(=O)Nc1ccc(OC)cc1 | 90 | 82 | 2 | 45 | 92 | 10 | -17 | 99 | 95 | 16.32 | 39 | 97 | 98 | 8 | 37 | Active | -15 | 6 | -10 | 94 | growth at 100 µM [21]: -20%; growth at 10 µM [22]: 7%; growth at 0.1 µM [23]: 102%; growth at 10 µM [24]: 10%; growth at 0.01 µM [25]: 101%; growth at 0.1 µM [26]: 89%; Activity [27]: 6.38%; growth at 1 µM [28]: 57%; growth at 10 µM [29]: 9%; growth at 0.1 µM [30]: 90%; Activity [31]: Active; growth at 1 µM [32]: 89%; Activity [33]: Active; growth at 1 µM [34]: 93%; growth at 0.1 µM [35]: 90%
2 | CCS/C(Nc1ccccc1)=C(\C#N)C(=O)N/N=C\c1ccc(Cl)cc1Cl | 90 | 75 | 5 | 26 | 93 | 9 | 3 | 96 | 97 | 22.18 | 42 | 97 | 98 | 11 | 35 | Active | 11 | 7 | -5 | 92 | growth at 100 µM [21]: -22%; growth at 10 µM [22]: 8%; growth at 0.1 µM [23]: 101%; growth at 10 µM [24]: 19%; growth at 0.01 µM [25]: 94%; growth at 0.1 µM [26]: 91%; Activity [27]: 3.47%; growth at 1 µM [28]: 76%; growth at 10 µM [29]: 3%; growth at 0.1 µM [30]: 90%; Activity [31]: Active; growth at 1 µM [32]: 86%; Activity [33]: Active; growth at 1 µM [34]: 92%; growth at 0.1 µM [35]: 82%
